ChEMBL document CHEMBL1134431, “Chemoenzymatic synthesis of functionalized cyclohexylglycines and alpha-methylcyclohexylglycines via Kazmaier-Claisen rearrangement” (Bioorg Med Chem Lett, 2001)

What was measured:
[1] = biological target: 72 kDa type IV collagenase (Homo sapiens, UniProt P08253); assay: Inhibition of gelatinase A (Matrix metalloprotease-2)
Collagenase 3 = Collagenase 3 (Homo sapiens, UniProt P45452); assay: Inhibition of Collagenase 3 (Matrix metalloprotease-13)
Stromelysin-1 = Stromelysin-1 (Homo sapiens, UniProt P08254); assay: Inhibition of Stromelysin (Matrix metalloprotease-3)
Stromelysin-1, sequence (P08254 whole entry): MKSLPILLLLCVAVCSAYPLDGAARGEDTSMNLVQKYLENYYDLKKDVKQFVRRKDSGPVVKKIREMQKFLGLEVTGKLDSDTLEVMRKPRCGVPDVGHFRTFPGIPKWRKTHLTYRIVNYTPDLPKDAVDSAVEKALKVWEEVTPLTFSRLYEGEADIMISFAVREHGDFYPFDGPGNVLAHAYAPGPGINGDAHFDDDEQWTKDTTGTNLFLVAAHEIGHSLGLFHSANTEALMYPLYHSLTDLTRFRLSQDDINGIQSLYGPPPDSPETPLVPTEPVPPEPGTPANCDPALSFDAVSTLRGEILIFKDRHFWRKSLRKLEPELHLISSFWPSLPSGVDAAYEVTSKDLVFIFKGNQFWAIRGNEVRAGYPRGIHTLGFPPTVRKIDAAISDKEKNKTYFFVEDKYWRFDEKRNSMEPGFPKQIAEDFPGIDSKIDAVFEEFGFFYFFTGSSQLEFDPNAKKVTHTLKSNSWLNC

72 kDa type IV collagenase, sequence (P08253 whole entry): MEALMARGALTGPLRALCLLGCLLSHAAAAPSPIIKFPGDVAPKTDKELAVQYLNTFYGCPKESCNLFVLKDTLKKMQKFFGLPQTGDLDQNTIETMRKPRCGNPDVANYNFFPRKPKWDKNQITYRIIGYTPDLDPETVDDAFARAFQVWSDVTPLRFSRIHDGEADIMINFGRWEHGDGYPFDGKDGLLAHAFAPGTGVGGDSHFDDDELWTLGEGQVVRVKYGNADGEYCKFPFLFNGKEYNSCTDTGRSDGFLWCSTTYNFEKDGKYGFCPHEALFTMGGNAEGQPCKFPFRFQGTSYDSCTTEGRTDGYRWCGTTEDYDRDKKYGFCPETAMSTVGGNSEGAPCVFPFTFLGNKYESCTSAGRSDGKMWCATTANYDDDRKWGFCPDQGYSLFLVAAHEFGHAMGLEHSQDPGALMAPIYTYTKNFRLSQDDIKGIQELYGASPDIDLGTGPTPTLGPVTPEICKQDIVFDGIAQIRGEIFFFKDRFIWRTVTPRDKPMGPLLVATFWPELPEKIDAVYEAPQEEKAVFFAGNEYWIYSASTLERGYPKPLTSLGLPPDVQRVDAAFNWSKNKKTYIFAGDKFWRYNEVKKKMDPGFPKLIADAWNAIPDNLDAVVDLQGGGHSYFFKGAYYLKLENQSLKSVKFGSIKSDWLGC

| IC50 [1] | IC50 (Collagenase 3) | IC50 (Stromelysin-1) | Compound |
| --- | --- | --- | --- |
| 251 nM | 338 nM | 6150 nM | COc1ccc(-c2ccc(S(=O)(=O)N[C@@](C)(C(=O)O)C3CCC(O)CC3)cc2)cc1 (some centres not stated) |
| 20 nM | 176 nM | 2490 nM | COc1ccc(-c2ccc(S(=O)(=O)N[C@@H](C(=O)O)C3C=C[C@@H](O)CC3)cc2)cc1 (some centres not stated) |
| 12 nM | 30 nM | 1220 nM | COc1ccc(-c2ccc(S(=O)(=O)N[C@@H](C(=O)O)C3CCC(O)CC3)cc2)cc1 (some centres not stated) |

| Compound | IC50 [1] | IC50 (Collagenase 3) | IC50 (Stromelysin-1) |
| --- | --- | --- | --- |
| COc1ccc(-c2ccc(S(=O)(=O)N[C@@H](C(=O)O)C3CC[C@H](O)C=C3Br)cc2)cc1 (some centres not stated) | 38 nM | 131 nM | 3800 nM |
